Test results taken from article PMC11228576 (RSC Advances, 2024).
Where two headings read alike, the source gives them in different places.

Tests used:
[1] = molecular target: T1, bovine erythrocyte CA-II (Bos taurus, UniProt P00921); experiment: CA-II in vitro inhibition assay; format: biochemical; conditions: for inhibition at 500 µM: read-out: Percent inhibition (0.5 mM); for Percent inhibition (0.5 mM): compound at 0.5 mM
[2] = molecular target: T1, bovine erythrocyte CA-II; experiment: Enzyme kinetics study of CA-II inhibition; format: biochemical
[3] = read-out: IC50 ± μM (SEM), bovine CA-II, triplicate, SEM

T1 sequence (P00921 whole entry): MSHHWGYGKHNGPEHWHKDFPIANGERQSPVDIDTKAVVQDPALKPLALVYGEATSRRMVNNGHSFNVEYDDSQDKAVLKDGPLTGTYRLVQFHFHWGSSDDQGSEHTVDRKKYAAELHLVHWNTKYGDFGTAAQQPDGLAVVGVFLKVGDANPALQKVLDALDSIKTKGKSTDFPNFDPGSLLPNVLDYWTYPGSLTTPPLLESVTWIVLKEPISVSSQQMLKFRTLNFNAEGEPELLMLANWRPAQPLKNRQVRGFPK

Structure (SMILES) | IC50 [1] [µM] | inhibition at 500 µM [1] [%] | Percent inhibition (0.5 mM) ([1]; bovine CA-II) [%] | IC50 [1, 3] [µM] | Ki [2] [µM] | type of inhibition ([2]; bovine CA-II, Lineweaver–Burk plot)
C(=N\N=c1\scc(-c2ccccc2)n1CCN1CCOCC1)/c1ccc(N2CCOCC2)cc1 [Compound 7, 4-{2-[(E)-2-{[(E)-4-morpholinobenzylidene]hydrazineylidene}-4-phenylthiazol-3(2H)-yl]ethyl}morpholine] | 37.2 ± 1.37 | 80.9 |  |  |  | 
Cc1cccc(C)c1-n1c(-c2ccc(Cl)cc2)cs/c1=N/N=C/c1ccc(N2CCOCC2)cc1 [Compound 21, 4-{4-[(E)-{[(E)-4-(4-chlorophenyl)-3-(2,6-dimethylphenyl)thiazol-2(3H)-ylidene]hydrazone}methyl]phenyl}morpholine] |  |  | 81.46 | 38.6 ± 0.48 |  | 
O=[N+]([O-])c1ccc(-c2cs/c(=N/N=C/c3ccc(N4CCOCC4)cc3)n2CCN2CCOCC2)cc1 [Compound 24, 4-{2-[(E)-2-{[(E)-4-morpholinobenzylidene]hydrazineylidene}-4-(4-nitrophenyl)thiazol-3(2H)-yl]ethyl}morpholine] | 14.7 ± 0.29 | 90.2 |  |  | 9.64 ± 0.007 | competitive type of inhibition
Clc1ccc(-c2cs/c(=N/N=C/c3ccc(N4CCOCC4)cc3)n2Cc2ccccc2)cc1 [Compound 14, 4-{4-[(E)-{[(E)-3-benzyl-4-(4-chlorophenyl)thiazol-2(3H)-ylidene]hydrazone}methyl]phenyl}morpholine] |  |  | 80.69 | 35.4 ± 0.64 |  | 
Clc1ccc(-c2cs/c(=N/N=C/c3ccc(N4CCOCC4)cc3)n2CCN2CCOCC2)cc1 [Compound 17, 4-{2-[(E)-2-{[(E)-4-morpholinobenzylidene]hydrazineylidene}-4-(4-chlorophenyl)thiazol-3(2H)-yl]ethyl}morpholine] | 51.2 ± 1.26 | 71.2 |  |  |  | 
Clc1ccc(-c2cs/c(=N/N=C/c3ccc(N4CCOCC4)cc3)n2CCc2ccccc2)cc1 [Compound 15, 4-{4-[(E)-{[(E)-4-(4-chlorophenyl)-3-phenethylthiazol-2(3H)-ylidene]hydrazone}methyl]phenyl}morpholine] |  |  | 75.36 | 49.3 ± 1.35 |  | 
C(=N\N=c1\scc(-c2ccccc2)n1-c1cccc2ccccc12)/c1ccc(N2CCOCC2)cc1 [Compound 10, 4-{4-[(E)-{[(E)-3-(naphthalen-1-yl)-4-phenylthiazol-2(3H)-ylidene] hydrazone}methyl]phenyl} morpholine] |  |  | 80.20 | 39.7 ± 1.41 |  | 
COc1ccc(-n2c(-c3ccc(Cl)cc3)cs/c2=N/N=C/c2ccc(N3CCOCC3)cc2)cc1 [Compound 19, 4-{4-[(E)-{[(E)-4-(4-chlorophenyl)-3-(4-methoxyphenyl)thiazol-2(3H)-ylidene] hydrazone}methyl]phenyl}morpholine] |  |  | 70.35 | 48.2 ± 1.19 |  | 
Cc1ccc(Cn2c(-c3ccc(Cl)cc3)cs/c2=N/N=C/c2ccc(N3CCOCC3)cc2)cc1 [Compound 16, 4-{4-[(E)-{[(E)-4-(4-chlorophenyl)-3-(4-methylbenzyl)thiazol-2(3H)-ylidene]hydrazone}methyl]phenyl}morpholine] |  |  | 70.20 | 56.3 ± 1.4 |  | 

More lines, now with the values ahead:

IC50 [1] [µM] | inhibition at 500 µM [1] [%] | Percent inhibition (0.5 mM) ([1]; bovine CA-II) [%] | IC50 [1, 3] [µM] | Ki [2] [µM] | type of inhibition ([2]; bovine CA-II, Lineweaver–Burk plot) | Structure (SMILES)
 |  | 84.95 | 23.8 ± 0.44 |  |  | Brc1ccc(-c2cs/c(=N/N=C/c3ccc(N4CCOCC4)cc3)n2-c2ccccc2)cc1 [Compound 27, 4-{4-[(E)-{[(E)-4-(4-bromophenyl)-3-phenylthiazol-2(3H)-ylidene]hydrazone}methyl]phenyl}morpholine]
 |  | 89.76 | 17.2 ± 0.36 |  |  | Cc1cccc(C)c1-n1c(-c2ccc([N+](=O)[O-])cc2)cs/c1=N/N=C/c1ccc(N2CCOCC2)cc1 [Compound 26, 4-{4-[(E)-{[(E)-3-(2,6-dimethylphenyl)-4-(4-nitrophenyl)thiazol-2(3H)ylidene] hydrazone}methyl]phenyl}morpholine]
 |  | 86.44 | 30.2 ± 0.59 |  |  | C(=N\N=c1\scc(-c2ccccc2)n1C1CCCCC1)/c1ccc(N2CCOCC2)cc1 [Compound 3, 4-{4-[(E)-{[(E)-3-cyclohexyl-4-phenylthiazol-2(3H)-ylidene]hydrazone}methyl]phenyl} morpholine]
 |  | 84.29 | 34.6 ± 1.1 |  |  | C(=N\N=c1\scc(-c2ccccc2)n1CCc1ccccc1)/c1ccc(N2CCOCC2)cc1 [Compound 6, 4-{4-[(E)-{[(E)-3-phenethyl-4-phenylthiazol-2(3H)-ylidene]hydrazone}methyl]phenyl} morpholine]
 |  | 88.69 | 16.5 ± 0.4 |  |  | COc1ccc(-n2c(-c3ccc([N+](=O)[O-])cc3)cs/c2=N/N=C/c2ccc(N3CCOCC3)cc2)cc1 [Compound 25, 4-{4-[(E)-{[(E)-3-(4-methoxyphenyl)-4-(4-nitrophenyl)thiazol-2(3H)-ylidene]hydrazone}methyl]phenyl}morpholine]
 |  | 83.11 | 27.4 ± 0.47 |  |  | O=[N+]([O-])c1cccc(-n2c(-c3ccccc3)cs/c2=N/N=C/c2ccc(N3CCOCC3)cc2)c1 [Compound 8, 4-{4-[(E)-{[(E)-3-(3-nitrophenyl)-4-phenylthiazol-2(3H)-ylidene] hydrazone}methyl]phenyl} morpholine]
 |  | 86.61 | 26.5 ± 0.68 |  |  | C(=N\N=c1\scc(-c2ccccc2)n1Cc1ccccc1)/c1ccc(N2CCOCC2)cc1 [Compound 5, 4-{4-[(E)-{[(E)-3-benzyl-4-phenylthiazol-2(3H)-ylidene] hydrazone}methyl]phenyl} morpholine]
